From US10550171B2, “Immunomodulatory peptides and methods of use thereof” (THE GOVERNORS OF THE UNIVERSITY OF ALBERTA, priority 2012, dated 2020)

Tests used:
CMV (Towne strain) = test: CMV replication plaque assay in HFF-1 cells; assay type: cell-based, cytomegalovirus (CMV); conditions: HFF-1 cells pre-treated 2 h with peptide 10 μM; for inhibitory effect on CMV replication (viral growth curves, plaque assay): CMV Towne MOI 0.03, day 4 and day 6
Method: The data are depicted in FIG. 1. […] HFF-1 cells were pre-treated for 2 h with peptides (10 μM), then washed and infected with CMV (Towne strain, MOI 0.03) and viral growth curves were generated.
Peptides PRT ([…]; SEQ ID NO:23). LKY (ASVTFNLFRLLTRDLKY; SEQ ID NO: 15), and LNC (ASVTFNLFRLLTRDLNC; SEQ ID NO: 16) were pre-incubated at a concentration of 10 μM with HFF-1 cells (ATCC HS97FS. SCRC1041, and CCD1112SK). The cells were washed, then challenged with IL-28B (100 ng/ml) for 30 minutes. Peptides REV ([…]; SEQ ID NO:24), FKG ([…]; SEQ ID NO:25), and APP ([…]; SEQ ID NO:26) were pre-incubated for 2 hours with IL-28B, then added to HFF1 for 30 minutes. Proteins were harvested and STAT2 phosphorylation was determined by Western blot analysis. The effect of the peptides on CMV replication in HFF-1 cells was also tested. HFF-1 cells were pre-treated for 2 hours with peptides (10 μM) or control. CMV replication was determined 4 days later using plaque assays. The data are depicted in FIGS. 19 and 20. In FIG. 19, the data are from Western blot experiments. HFF11 cells were pre-treated with individual peptides for 2 hours, then challenged with IL28B for 30 minutes. Results were normalized to STAT2 and β-tubulin baseline expression. In FIG. 20, the data are from plaque assays. HFF1 cells were pre-treated with individual peptides for 2 hours, then infected with CMV Towne strain (multiplicity of infection 0.03). Plaque forming units (PFU) at day 4 were determined.

[1] = biological target: T1, binding of IL29 to IL-28R (Homo sapiens, UniProt Q8IU57); test: ELISA assay, effect of peptides on binding of IL29 to IL-28R; conditions: for inhibition of the binding of IL29 to IL-28R: increasing peptide concentrations
T1 sequence (Q8IU57 21-228 limits assumed): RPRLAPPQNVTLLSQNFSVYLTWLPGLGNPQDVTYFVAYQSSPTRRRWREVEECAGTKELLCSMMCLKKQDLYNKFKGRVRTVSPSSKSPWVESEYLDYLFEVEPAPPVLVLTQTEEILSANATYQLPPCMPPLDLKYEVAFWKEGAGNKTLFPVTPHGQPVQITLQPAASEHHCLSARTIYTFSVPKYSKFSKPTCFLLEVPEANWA

STAT2 phosphorylation = STAT2 phosphorylation in HFF-1 cells challenged with IL-28B, Western blot; assay type: cell-based, human; conditions: for reduction in STAT2-phosphorylation: HFF-1 cells pre-incubated with peptide 10 μM, washed, IL-28B 100 ng/ml 30 minutes, normalized to STAT2 and β-tubulin; for blocking of STAT-2 phosphorylation: peptide pre-incubated 2 hours with IL-28B, then added to HFF1 for 30 minutes
STAT1 phosphorylation = test: STAT-1 phosphorylation in THP1-derived macrophages, flow cytometry; assay type: cell-based; conditions: IL28B 100 ng/mL, peptide 1 at 10 μM for 90 min before IL28B, peptide 17 added together with IL28B
Method: The effect of peptide 1 and peptide 17 on STAT-1 phosphorylation in macrophages was tested using flow cytometry.
STAT1 phosphorylation is one of the earliest events that occur after the IFN receptor is activated. THP1 cells (a monocytic cell line) were stimulated for 3 days with phorbol-12-myristate-13-acetate (PMA) and then rested for another 5 days in standard cultivation methods (37° C. 5% CO2) with RPMI containing 10% fetal calf serum (FCS). After 3 days, the PMA was removed and fresh media added. This treatment induces maturation of THP1, such that the THP1 cells are induced to express macrophage markers (Daigneault et al. (2010) PLoSOne 5:e8668). Next, the cells were treated: (i) either for 90 min with peptide 1 at a concentration of 10 μM and then added IL28B at 100 ng/mL or (ii) peptide 17 was added directly together with IL28B. “Scramble p1” is a control peptide with the amino acid sequence of p1 scrambled. Scramble p17” is a control peptide with the amino acid sequence of p17 scrambled.

[2] = biological target: T2, binding of IL28A to IL-28R (Homo sapiens, UniProt Q8IU57); test: ELISA assay, effect of peptides on binding of IL28A to IL-28R; conditions: increasing peptide concentrations
T2 sequence (Q8IU57 21-228 limits assumed): T1 sequence (Q8IU57 21-228 limits assumed)

IL28R1 = biological target: T3, IL28R1 (Homo sapiens, UniProt Q8IU57); test: Biacore assay, binding of interferon lambda ligands to IL28R1
T3 sequence (Q8IU57 21-520): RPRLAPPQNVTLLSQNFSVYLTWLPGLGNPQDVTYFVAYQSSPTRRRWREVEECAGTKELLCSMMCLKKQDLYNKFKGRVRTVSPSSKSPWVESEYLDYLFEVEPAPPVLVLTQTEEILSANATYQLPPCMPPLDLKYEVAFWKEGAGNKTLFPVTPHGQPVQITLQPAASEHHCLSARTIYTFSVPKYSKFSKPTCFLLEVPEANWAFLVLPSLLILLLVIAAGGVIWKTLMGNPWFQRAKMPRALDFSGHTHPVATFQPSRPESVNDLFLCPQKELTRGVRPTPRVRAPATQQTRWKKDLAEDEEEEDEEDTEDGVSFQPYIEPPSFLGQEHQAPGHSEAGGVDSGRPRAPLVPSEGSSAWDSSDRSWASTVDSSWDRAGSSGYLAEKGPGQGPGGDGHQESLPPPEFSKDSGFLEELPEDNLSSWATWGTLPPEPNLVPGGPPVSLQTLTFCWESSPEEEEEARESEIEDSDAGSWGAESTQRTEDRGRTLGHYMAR
Source text: FIG. 9 depicts binding affinity (KD values in PM) of ligands IL28A, IL28B, and IL29, and of peptides 1, 2, 6, 7, and 15-18, for IL28R1. […] In […], the KD values indicate differences between peptides.
FIG. 10 depicts the effect of peptides on binding of IL29 to IL-28R. Binding of IL29 was disrupted by addition of increasing peptide concentrations.

ASVTFNLFRLLTRDLKY [Peptide 6]
inhibitory effect on CMV replication (viral growth curves, plaque assay) (CMV (Towne strain)): strong inhibitory effects
inhibition of the binding of IL29 to IL-28R [1]: highly potent
reduction in STAT2-phosphorylation (STAT2 phosphorylation): 40%

ASVTFNLFRLLTRDLNC [Peptide 7]
lower CMV replication (plaque forming units) (CMV (Towne strain); CMV Towne MOI 0.03, day 4 after infection): 2.5 log10
inhibitory effect on CMV replication (viral growth curves, plaque assay) (CMV (Towne strain)): strong inhibitory effects
reduction in STAT2-phosphorylation (STAT2 phosphorylation): 34%

ELASFKKARDALEESLKL [Peptide 1]
inhibitory effect on CMV replication (viral growth curves, plaque assay) (CMV (Towne strain)): strong inhibitory effects
IC50 for inhibition of IL29 binding, as excess of peptide over the natural ligand [1]: 50 time excess of peptide over the natural ligand
inhibition of the binding of IL29 to IL-28R [1]: highly potent
STAT1 phosphorylation (STAT1 phosphorylation): reduce STAT1 phosphorylation

KLKNWSCSSPVFPGNWDLRL [Peptide 17]
inhibition of the binding of IL28A to IL-28R [2]: potent
STAT1 phosphorylation (STAT1 phosphorylation): reduce STAT1 phosphorylation

LLKDCKCRSRLFPRTWDLRQ [Peptide 15]
inhibition of the binding of IL28A to IL-28R [2]: potent

LLKDCRCHSRLFPRTWDLRQ [Peptide 16]
inhibition of the binding of IL28A to IL-28R [2]: potent

MMCLKKQDLYNKFKG (MMCLKKQDLYNKFRG) [Peptide 9]
blocking of STAT-2 phosphorylation (STAT2 phosphorylation): None of peptides REV, FKG, and APP blocked

SEYLDYLFEVEPAPP [Peptide 10]
blocking of STAT-2 phosphorylation (STAT2 phosphorylation): None of peptides REV, FKG, and APP blocked

VAYQSSPTRRRWREV [Peptide 8]
blocking of STAT-2 phosphorylation (STAT2 phosphorylation): None of peptides REV, FKG, and APP blocked

B1: IL29: polypeptide of about 200 amino acids which binds a heterodimeric IL-28 receptor complex (protein, listed as Homo sapiens)
chain: MAAAWTVVLVTLVLGLAVAGPVPTSKPTTTGKGCHIGRFKSLSPQELASFKKARDALEESLKLKNWSCSSPVFPGNWDLRLLQVRERPVALEAELALTLKVLEAAAGPALEDVLDQPLHTLHHILSQLQACIQPQPTAGPRPRGRLHHWLHRLQEAPKKESAGCLEASVTFNLFRLLTRDLKYVADGNLCLRTSTHPEST
binding affinity towards IL28R1 (IL28R1): highest binding affinity of all Interferon lambdas

B2: IL28B: polypeptide of about 196 amino acids which binds a heterodimeric IL-28R complex (protein, listed as Homo sapiens)
chain: MTGDCMPVLVLMAAVLTVTGAVPVARLRGALPDARGCHIAQFKSLSPQELQAFKRAKDALEESLLLKDCKCRSRLFPRTWDLRQLQVRERPVALEAELALTLKVLEATADTDPALGDVLDQPLHTLHHILSQLRACIQPQPTAGPRTRGRLHHWLHRLQEAPKKESPGCLEASVTFNLFRLLTRDLNCVASGDLCV
binding affinity towards IL28R1 (IL28R1): significant lower binding affinity
